Data published in ChEMBL document CHEMBL1152719, “Non-urea functionality as the primary pharmacophore in soluble epoxide hydrolase inhibitors” (Bioorg Med Chem Lett, 2009).

molecular target: T1, Bifunctional epoxide hydrolase 2 (Homo sapiens, UniProt P34913); assay: Inhibition of soluble epoxide hydrolase by fluorescence assay
T1 sequence (P34913 whole entry): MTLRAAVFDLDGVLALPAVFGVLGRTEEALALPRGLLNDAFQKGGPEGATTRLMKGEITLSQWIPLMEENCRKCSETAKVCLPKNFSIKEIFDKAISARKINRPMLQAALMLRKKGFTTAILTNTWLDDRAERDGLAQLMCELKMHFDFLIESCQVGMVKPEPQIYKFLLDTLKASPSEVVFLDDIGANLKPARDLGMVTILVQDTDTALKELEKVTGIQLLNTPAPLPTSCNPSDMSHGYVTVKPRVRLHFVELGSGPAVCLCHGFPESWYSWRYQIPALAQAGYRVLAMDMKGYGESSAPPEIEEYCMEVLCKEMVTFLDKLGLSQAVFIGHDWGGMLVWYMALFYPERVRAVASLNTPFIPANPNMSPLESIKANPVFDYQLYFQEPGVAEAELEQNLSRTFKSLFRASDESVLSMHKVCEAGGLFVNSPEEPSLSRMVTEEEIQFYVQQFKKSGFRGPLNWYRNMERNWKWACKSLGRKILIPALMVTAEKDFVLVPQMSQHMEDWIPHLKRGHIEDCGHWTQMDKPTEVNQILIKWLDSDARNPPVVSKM

Row | SMILES | IC50
1 | O=C(Nc1cccc(OCCCN2CCOCC2)c1)C12CC3CC(CC(C3)C1)C2 | 88 nM
2 | O=C(CC12CC3CC(CC(C3)C1)C2)Nc1cccc(OCCCN2CCOCC2)c1 | 2.5 nM
3 | O=C(Nc1ccc(C(F)(F)F)cc1)Nc1cccc(OCCCN2CCOCC2)c1 | 1.2 nM
4 | O=C(Nc1cccc(OCCCN2CCOCC2)c1)NC12CC3CC(CC(C3)C1)C2 | 0.8 nM
5 | O=C(Nc1cccc(OCCCN2CCOCC2)c1)NC1CCCCC1 | 3.9 nM
6 | O=C(Nc1cccc(OCCCN2CCOCC2)c1)C(=O)C12CC3CC(CC(C3)C1)C2 | > 2000 nM
7 | O=C(CCC12CC3CC(CC(C3)C1)C2)C(=O)Nc1cccc(OCCCN2CCOCC2)c1 | 48 nM
8 | O=S(=O)(Nc1cccc(OCCCN2CCOCC2)c1)NC12CC3CC(CC(C3)C1)C2 | 3600 nM
9 | O=C(Nc1cccc(OCCCN2CCOCC2)c1)C(O)C12CC3CC(CC(C3)C1)C2 (centres undefined) | > 2000 nM
10 | O=C(Nc1cccc(OCCCN2CCOCC2)c1)C(O)CC12CC3CC(CC(C3)C1)C2 (centres undefined) | 23 nM
11 | O=C(Nc1cccc(OCCCN2CCOCC2)c1)c1ccc(C(F)(F)F)cc1 | 93 nM
12 | O=C(NCCc1ccc(OCc2ccccc2)cc1)C(O)CCC12CC3CC(CC(C3)C1)C2 (centres undefined) | 11 nM
13 | O=C(Nc1ccc(OCc2ccccc2)cc1)C(O)C12CC3CC(CC(C3)C1)C2 (centres undefined) | 310 nM
14 | O=C(Nc1ccc(OCc2ccccc2)cc1)C(O)CC12CC3CC(CC(C3)C1)C2 (centres undefined) | 270 nM
15 | O=C(Nc1ccc(OCc2ccccc2)cc1)C(=O)C12CC3CC(CC(C3)C1)C2 | 210 nM
16 | O=C(CC12CC3CC(CC(C3)C1)C2)C(=O)Nc1cccc(OCCCN2CCOCC2)c1 | 49 nM

The next lines start with the values.

Row | IC50 | SMILES
17 | 28 nM | O=C(CC1CCCCC1)Nc1cccc(OCCCN2CCOCC2)c1
18 | 390 nM | O=C(Nc1cccc(OCCCN2CCOCC2)c1)C1CCCCC1
19 | 8.2 nM | O=C(Nc1ccc(OC(F)(F)F)cc1)Nc1cccc(OCCCN2CCOCC2)c1
20 | 55 nM | O=C(Cc1ccc(C(F)(F)F)cc1)Nc1cccc(OCCCN2CCOCC2)c1
21 | 22 nM | S=C(Nc1cccc(OCCCN2CCOCC2)c1)NC12CC3CC(CC(C3)C1)C2
22 | 530 nM | O=C(Nc1cccc(OCCCN2CCOCC2)c1)C(O)CCC12CC3CC(CC(C3)C1)C2 (centres undefined)
23 | 1110 nM | O=C(CC12CC3CC(CC(C3)C1)C2)C(=O)Nc1ccc(OCc2ccccc2)cc1
24 | 685 nM | O=C(CCC12CC3CC(CC(C3)C1)C2)C(=O)NCCc1ccc(OCc2ccccc2)cc1
25 | 15 nM | O=C(NCCc1ccc(OCc2ccccc2)cc1)NCCC12CC3CC(CC(C3)C1)C2
26 | 185 nM | O=C(NCCc1ccc(OCc2ccccc2)cc1)C(O)CC12CC3CC(CC(C3)C1)C2 (centres undefined)
27 | 1540 nM | O=C(CC12CC3CC(CC(C3)C1)C2)C(=O)NCCc1ccc(OCc2ccccc2)cc1
28 | 15000 nM | O=S(=O)(Nc1cccc(OCCCN2CCOCC2)c1)c1ccc(C(F)(F)F)cc1
29 | 110 nM | O=C(CNC12CC3CC(CC(C3)C1)C2)Nc1cccc(OCCCN2CCOCC2)c1
